Assay results reported in patent US12357665B2, “Pharmaceutical compositions and uses thereof in treating muscle atrophy” (Tzung-Yan, priority 2020, dated 2025).

Tests used:
Assay type in all cases: in vivo, mouse (C57BL/6J)
[1] = test system: muscle tissues of sucrose and MPTP-induced aging mice; experiment: Sucrose and MPTP-induced muscle atrophy in aging mice, oral administration: histology, atrogin-1 and klotho mRNA (Example 4); conditions: once per day day 17-30, ATG-125 60 mg/kg oral, selegiline 1 mg/kg intraperitoneal, FIG. 7
Method: (§1) Male C57BL/6J (6 and 18 months) mice were fed standard chow and water ad libitum, and housed under conditions of control temperature (26° C.) and illumination (12-hour light/dark cycle). […]
Total RNA was isolated from 0.2 g of muscle tissues using RNA extraction kit. For qRT-PCR (real-time reverse transcription-PCR), equal amounts of RNA were retro-transcribed to cDNA using cDNA reverse transcription kit according to the manufacturer's instruction. atrogin-1, klotho, mitochondrial transcription factor A (TFAM), SIRT1, PGC1α, nuclear respiratory factor 1 (NRF1), UCP1, and UCP2 mRNA expressions were evaluated using the SYBR® Green PCR master mix. Relative expression was calculated using the ΔΔCt method with normalization to constitutive genes. […]

[2] = test system: mitochondrial biogenesis mediators (SIRT1, PGC1α, NRF1, TFAM, UCP1, UCP2); experiment: Sucrose and MPTP-induced aging mice: mitochondrial molecules mRNA in muscle tissues (Example 5); conditions: once per day day 17-30, ATG-125 60 mg/kg oral, selegiline 1 mg/kg intraperitoneal, FIG. 8
Method: as §1
Total RNA was isolated from 0.2 g of muscle tissues using RNA extraction kit. For qRT-PCR (real-time reverse transcription-PCR), equal amounts of RNA were retro-transcribed to cDNA using cDNA reverse transcription kit according to the manufacturer's instruction. atrogin-1, klotho, mitochondrial transcription factor A (TFAM), SIRT1, PGC1α, nuclear respiratory factor 1 (NRF1), UCP1, and UCP2 mRNA expressions were evaluated using the SYBR® Green PCR master mix. Relative expression was calculated using the ΔΔCt method with normalization to constitutive genes.
Mitochondria play an essential role in energy production, redox homeostasis, and the regulation of cell death pathways. […] Thus, whether ATG-125 solution improves the mitochondrial function in the animal having muscle atrophy was evaluated in this example, and the results were respectively depicted in FIG. 8.

[3] = test system: muscle tissues of aging mice fed with sucrose; experiment: Sucrose-induced muscle atrophy in aging mice, topical administration: histology and muscle atrophy-associated molecules (Example 1); conditions: once per day day 17-30, ATG-125 60 mg/kg topical, 4-OHT 1 mg/kg intraperitoneal
Method: as §1
(§2) Muscle tissues were harvested immediately from the mice after they were sacrificed, followed by flash frozen in liquid nitrogen and stored at −80° C. Proteins were extracted from muscle tissues with distilled water containing protease inhibitors, and each protein concentration was determined by protein assay kits. Protein (50 μg) was analyzed on a 10% sodium dodecyl sulfate polyacrylamide gel electrophoresis (SDS-PAGE), and transferred to a polyvinylidene difluoride (PVDF) membrane. […] The optical densities of the bands were quantified using software. […]

[4] = test system: mitochondrial biogenesis mediators (SIRT1, PGC1α, NRF1, TFAM, UCP1, UCP2, UCP3); experiment: Sucrose-induced aging mice: mitochondrial molecules in muscle tissues, mRNA and protein (Example 3); conditions: once per day day 17-30, ATG-125 60 mg/kg topical, 4-OHT 1 mg/kg intraperitoneal, FIGS. 5 and 6
Method: as §1, §2

[5] = test system: mTOR/insulin signaling pathway (IGF1R, IRS1, PI3K, AKT, mTOR, S6K, 4EBP1); experiment: Sucrose-induced aging mice: mTOR/insulin signaling pathway in muscle tissues, Western blot (Example 2); conditions: once per day day 17-30, ATG-125 60 mg/kg topical, 4-OHT 1 mg/kg intraperitoneal, FIGS. 4A and 4B
Method: as §1, §2

Compound	adverse effect of sucrose and MPTP on muscle tissues (mRNA levels of Atrogin-1 and Klotho) [1]	levels of degenerated myofibers in muscles ([1]; H&E)	expression levels of mitochondrial biogenesis mediators (mRNA SIRT1, PGC1α, NRF1, TFAM, UCP1, UCP2) in muscle tissues [2]	adverse effect of sucrose on muscle tissues (protein levels of pAMPK, FOXO3a, MuRF1, lipofuscin; mRNA levels of Atrogin-1 and Klotho) ([3]; FIGS. 1 to 3)	levels of adipocytes and degenerated myofibers in muscles ([3]; H&E, FIG. 1)	expression levels of mitochondrial biogenesis mediators (mRNA SIRT1, PGC1α, NRF1, TFAM, UCP1, UCP2; protein SIRT1, PGC1α, UCP1, UCP2, UCP3) in muscle tissues [4]	phosphorylated levels (activations) of mTOR/insulin signaling molecules (pIGF1R, pIRS1, pPI3K, pAKT, pmTOR, pS6K, p4EBP1) [5]
C#CCN(C)[C@H](C)Cc1ccccc1 [selegiline]	significantly reversed	decreased	increased				
4-hydroxytamoxifen [4-OHT]				significantly reversed	decreased	increased	enhanced
